Values after ≈ are worked out from the molar mass of the structure shown.
Key:
[1] = system: Pseudomonas aeruginosa; assay: Antimicrobial activity against Pseudomonas aeruginosa by liquid microdilution assay; type: functional
[2] = system: Staphylococcus aureus; assay: Inhibition of protein biosynthesis in Staphylococcus aureus assessed as incorporation of [14C]leucine by scintillation counting analysis; type: functional, organism-based
[3] = Antifungal activity against Fusarium solani f. sp. mori; type: functional
[4] = Antifungal activity against Diaporthe nomurai; type: functional
[5] = system: Salmonella typhi; assay: Antimicrobial activity against Salmonella typhi by liquid microdilution assay; type: functional, Salmonella enterica subsp. enterica serovar Typhi; conditions: Salmonella enterica
[6] = system: Pseudomonas aeruginosa; assay: Microbicidal activity against Pseudomonas aeruginosa by liquid microdilution assay; type: functional
[7] = system: Candida albicans; assay: Antimicrobial activity against Candida albicans by liquid microdilution assay; type: functional
[8] = system: Bacillus cereus; assay: Antimicrobial activity against Bacillus cereus by liquid microdilution assay; type: functional
[9] = Antifungal activity against Fusarium roseum; type: functional
[10] = system: Enterococcus faecalis; assay: Microbicidal activity against Streptococcus faecalis by liquid microdilution assay; type: functional
[11] = system: Escherichia coli; assay: Antimicrobial activity against Escherichia coli; type: functional
[12] = system: Shigella dysenteriae; assay: Microbicidal activity against Shigella dysenteriae by liquid microdilution assay; type: functional
[13] = system: Staphylococcus aureus; assay: Antimicrobial activity against Staphylococcus aureus RN4220 assessed as inhibition of cell growth by broth microdilution method; type: functional
[14] = Antifungal activity against Fusarium lateritium f. sp. mori; type: functional
[15] = Antifungal activity against Stigmina mori; type: functional
[16] = system: Klebsiella pneumoniae; assay: Microbicidal activity against Klebsiella pneumoniae by liquid microdilution assay; type: functional
[17] = Inhibition of alpha-glucosidase (unknown origin); design: species or system Homo sapiens
[18] = system: Citrobacter freundii; assay: Antimicrobial activity against Citrobacter freundii by liquid microdilution assay; type: functional
[19] = system: Klebsiella pneumoniae; assay: Antimicrobial activity against Klebsiella pneumoniae by liquid microdilution assay; type: functional
[20] = Antioxidant activity in liver (unknown origin) assessed as inhibition of Fe2+/cysteine system-induced lipid peroxidation; type: functional, tissue-based; conditions: dose or concentration not given here
[21] = system: Microsporum audouinii; assay: Microbicidal activity against Microsporum audouinii by liquid microdilution assay; type: functional
[22] = system: Escherichia coli; assay: Microbicidal activity against Escherichia coli by liquid microdilution assay; type: functional
[23] = system: Candida albicans; assay: Microbicidal activity against Candida albicans by liquid microdilution assay; type: functional
[24] = Antifungal activity against Cochliobolus miyabeanus; type: functional; conditions: Bipolaris oryzae
[25] = system: Citrobacter freundii; assay: Microbicidal activity against Citrobacter freundii by liquid microdilution assay; type: functional
[26] = system: Salmonella typhi; assay: Microbicidal activity against Salmonella typhi by liquid microdilution assay; type: functional, Salmonella enterica subsp. enterica serovar Typhi; conditions: Salmonella enterica
[27] = system: Staphylococcus aureus; assay: Antimicrobial activity against methicillin-resistant Staphylococcus aureus CCARM3167 assessed as inhibition of cell growth by broth microdilution method; type: functional
[28] = system: Staphylococcus aureus; assay: Inhibition of fatty acid biosynthesis in Staphylococcus aureus assessed as incorporation of [1-14C]acetate by scintillation counting analysis; type: functional, organism-based
[29] = Antiinflammatory activity against rat PMN assessed as inhibition of PAF-induced beta-glucuronidase release relative to control; type: functional
[30] = system: Pseudomonas aeruginosa; assay: Antimicrobial activity against Pseudomonas aeruginosa; type: functional
[31] = system: RAW264.7; assay: Antiinflammatory activity against mouse RAW264.7 cells assessed as reduction of IFNgamma-induced NO production; type: functional, cell-based
[32] = system: Bacillus cereus; assay: Microbicidal activity against Bacillus cereus by liquid microdilution assay; type: functional
[33] = system: Klebsiella pneumoniae; assay: Antimicrobial activity against Klebsiella pneumoniae; type: functional
[34] = target: Enoyl-[acyl-carrier-protein] reductase [NADPH] FabI (Staphylococcus aureus, UniProt Q6GI75); assay: Inhibition of Staphylococcus aureus FabI-mediated trans-2-octenoyl N-acetylcysteamine (t-o-NAC thioester) substrate reduction assessed as decrease in NADPH […]
Sequence of Enoyl-[acyl-carrier-protein] reductase [NADPH] FabI (Q6GI75 whole entry): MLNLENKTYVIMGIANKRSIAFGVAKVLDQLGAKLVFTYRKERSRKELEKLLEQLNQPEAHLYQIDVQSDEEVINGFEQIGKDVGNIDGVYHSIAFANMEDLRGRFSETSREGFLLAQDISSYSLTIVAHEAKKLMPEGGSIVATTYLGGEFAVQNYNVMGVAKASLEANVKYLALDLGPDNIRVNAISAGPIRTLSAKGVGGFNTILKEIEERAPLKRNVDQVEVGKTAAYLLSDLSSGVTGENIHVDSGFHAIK

[35] = system: Micrococcus luteus; assay: Antimicrobial activity against Micrococcus luteus; type: functional
[36] = system: RAW264.7; assay: Antiinflammatory activity against mouse RAW264.7 cells assessed as reduction of LPS-induced NO production; type: functional, cell-based
[37] = system: Microsporum audouinii; assay: Antimicrobial activity against Microsporum audouinii by liquid microdilution assay; type: functional
[38] = system: Staphylococcus aureus; assay: Microbicidal activity against Staphylococcus aureus by liquid microdilution assay; type: functional
[39] = system: Staphylococcus aureus; assay: Antimicrobial activity against Staphylococcus aureus by liquid microdilution assay; type: functional
[40] = system: Shigella dysenteriae; assay: Antimicrobial activity against Shigella dysenteriae by liquid microdilution assay; type: functional
[41] = system: Morus alba; assay: Antioxidant activity in mulberry leaves assessed as UV-stress-induced free radical scavenging activity measured as inhibition of blue formazan at 100 uM; type: functional
[42] = system: Staphylococcus aureus; assay: Antimicrobial activity against methicillin-sensitive Staphylococcus aureus; type: functional
[43] = system: Rosellinia necatrix; assay: Antifungal activity against Rosellinia necatrix; type: functional
[44] = system: Staphylococcus aureus; assay: Antimicrobial activity against methicillin-resistant Staphylococcus aureus; type: functional
[45] = system: Escherichia coli; assay: Antimicrobial activity against Escherichia coli by liquid microdilution assay; type: functional
[46] = system: Enterococcus faecalis; assay: Antimicrobial activity against Streptococcus faecalis by liquid microdilution assay; type: functional
[47] = system: Bacillus subtilis; assay: Antimicrobial activity against Bacillus subtilis; type: functional
[48] = target: T1, Hypoxia-inducible factor 1-alpha (Homo sapiens, UniProt Q16665); assay: Inhibition of HIF-1alpha in human Hep3B cells cotransfected with pGL3-HRE-luciferase plasmid at > 50 uM after 24 hrs by dual-luciferase reporter assay; type: cell-based; conditions: hep 3b2
T1 sequence (Q16665 whole entry): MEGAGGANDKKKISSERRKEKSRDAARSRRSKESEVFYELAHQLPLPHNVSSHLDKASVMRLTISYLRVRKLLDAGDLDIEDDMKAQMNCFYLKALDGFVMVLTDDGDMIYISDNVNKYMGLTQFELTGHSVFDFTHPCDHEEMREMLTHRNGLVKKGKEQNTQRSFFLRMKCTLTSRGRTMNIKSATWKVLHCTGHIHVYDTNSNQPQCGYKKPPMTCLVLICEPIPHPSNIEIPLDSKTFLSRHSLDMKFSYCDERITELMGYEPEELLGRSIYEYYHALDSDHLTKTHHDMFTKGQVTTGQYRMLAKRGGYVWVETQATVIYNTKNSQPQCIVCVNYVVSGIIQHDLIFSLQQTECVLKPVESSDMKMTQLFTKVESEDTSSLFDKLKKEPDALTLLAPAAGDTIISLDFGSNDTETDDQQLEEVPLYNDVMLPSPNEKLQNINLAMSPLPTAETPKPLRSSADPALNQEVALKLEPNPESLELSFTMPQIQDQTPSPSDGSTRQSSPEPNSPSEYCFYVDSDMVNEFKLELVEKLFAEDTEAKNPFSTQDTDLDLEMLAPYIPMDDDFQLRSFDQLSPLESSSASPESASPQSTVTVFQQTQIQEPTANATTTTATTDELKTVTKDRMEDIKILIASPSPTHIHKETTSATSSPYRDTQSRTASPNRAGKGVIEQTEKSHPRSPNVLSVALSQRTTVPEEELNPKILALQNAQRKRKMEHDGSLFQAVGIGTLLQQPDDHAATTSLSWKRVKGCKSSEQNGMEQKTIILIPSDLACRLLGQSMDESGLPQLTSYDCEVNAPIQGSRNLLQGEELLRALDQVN

[49] = Cytotoxicity against human Hep3B cells assessed as cell viability after 24 hrs by MTT assay; type: cell-based, Hep 3B2
[50] = system: Mus musculus; assay: Hypoglycemic activity in alloxan-induced diabetic mouse assessed as fasting blood glucose level at 10 mg/kg; type: functional
[51] = target: T1, Hypoxia-inducible factor 1-alpha; assay: Inhibition of HIF-1alpha in human Hep3B cells assessed as decrease in VEGF level at > 50 uM after 20 hrs by ELISA; type: cell-based; conditions: hep 3b2
[52] = system: Mus musculus; assay: Hypoglycemic activity in alloxan-induced diabetic mouse assessed as fasting blood glucose level at 50 mg/kg; type: functional

CC(C)=CCc1c(O)cc(-c2cc3ccc(O)cc3o2)cc1O [MORACIN C]
MIC [1]: 10 µg/mL (≈ 32.2 µM) | IC50 [2]: 188 µM | MIC [3]: 224 µg/mL (≈ 722 µM) | MIC [4]: 14 µg/mL (≈ 45.1 µM) | MIC [5]: 10 µg/mL (≈ 32.2 µM) | MBC [6]: 39 µg/mL (≈ 126 µM) | MIC [7]: 68 µg/mL (≈ 219 µM) | MIC [8]: 78 µg/mL (≈ 251 µM) | MIC [9]: 3.5 µg/mL (≈ 11.3 µM) | MBC [10]: 78 µg/mL (≈ 251 µM) | MIC [11]: > 100 µg/mL | MBC [12]: 39 µg/mL (≈ 126 µM) | MIC [13]: 32 µg/mL (≈ 103 µM) | MIC [14]: 7 µg/mL (≈ 22.6 µM) | MIC [15]: 112 µg/mL (≈ 361 µM) | MBC [16]: 625 µg/mL (≈ 2010 µM) | IC50 [17]: 4.04 µM | MIC [18]: 156 µg/mL (≈ 503 µM) | MIC [19]: 312 µg/mL (≈ 1010 µM) | inhibition [20]: 73% | MFC [21]: 312 µg/mL (≈ 1010 µM) | MBC [22]: 78 µg/mL (≈ 251 µM) | MFC [23]: 156 µg/mL (≈ 503 µM) | MIC [24]: 28 µg/mL (≈ 90.2 µM) | MBC [25]: 625 µg/mL (≈ 2010 µM) | MBC [26]: 39 µg/mL (≈ 126 µM) | MIC [27]: 32 µg/mL (≈ 103 µM) | IC50 [28]: 74.8 µM | inhibition (INH) [29]: 100% | MIC [30]: > 100 µg/mL | IC50 [31]: 8 µM | MBC [32]: 156 µg/mL (≈ 503 µM) | MIC [33]: > 100 µg/mL | IC50 [34]: 83.8 µM | MIC [35]: 12.5 µg/mL (≈ 40.3 µM) | IC50 [36]: 8 µM | MIC [37]: 78 µg/mL (≈ 251 µM) | MBC [38]: 156 µg/mL (≈ 503 µM) | MIC [39]: 78 µg/mL (≈ 251 µM) | MIC [40]: 5 µg/mL (≈ 16.1 µM) | inhibition [41]: 64% | MIC [42]: 6.25 µg/mL (≈ 20.1 µM) | MIC [43]: 3.5 µg/mL (≈ 11.3 µM) | MIC [44]: 12.5 µg/mL (≈ 40.3 µM) | MIC [45]: 39 µg/mL (≈ 126 µM) | MIC [46]: 39 µg/mL (≈ 126 µM) | MIC [47]: 3.13 µg/mL (≈ 10.1 µM)

Oc1cc(O)cc(-c2cc3ccc(O)cc3o2)c1 [MORACIN M]
MIC [1]: 156 µg/mL (≈ 644 µM) | MIC [5]: 78 µg/mL (≈ 322 µM) | MBC [6]: 625 µg/mL (≈ 2580 µM) | IC50 [48]: Not Active | MBC [10]: 156 µg/mL (≈ 644 µM) | IC50 [49]: > 30 µM | MIC [11]: > 100 µg/mL | MBC [12]: 156 µg/mL (≈ 644 µM) | MBC [16]: 625 µg/mL (≈ 2580 µM) | Activity [50]: 18.52 mmol/L | MIC [18]: 312 µg/mL (≈ 1290 µM) | MIC [19]: 312 µg/mL (≈ 1290 µM) | MFC [21]: 312 µg/mL (≈ 1290 µM) | MBC [22]: 625 µg/mL (≈ 2580 µM) | IC50 [51]: Not Active | MBC [26]: 156 µg/mL (≈ 644 µM) | inhibition (INH) [29]: 54% | MIC [30]: > 100 µg/mL | MIC [33]: > 100 µg/mL | MIC [35]: 25 µg/mL (≈ 103 µM) | MIC [37]: 78 µg/mL (≈ 322 µM) | MIC [40]: 78 µg/mL (≈ 322 µM) | MIC [42]: 12.5 µg/mL (≈ 51.6 µM) | Activity [52]: 20.08 mmol/L | MIC [44]: 25 µg/mL (≈ 103 µM) | MIC [45]: 78 µg/mL (≈ 322 µM) | MIC [46]: 78 µg/mL (≈ 322 µM) | MIC [47]: 100 µg/mL (≈ 413 µM)

From ChEMBL document CHEMBL3397033, “Bioactive benzofuran derivatives: moracins A-Z in medicinal chemistry” (Eur J Med Chem, 2015)
